According to patent US20210330774A1, “HERV-K-DERIVED ANTIGENS AS SHARED TUMOR ANTIGENS FOR ANTI-CANCER VACCINE” (CENTRE LEON BERARD, priority 2018, published 2021):

Key:
Type in all cases: cell-based, human
[1] = system: CD8+ T cells; experiment: Dextramer assay after 12-day peptide stimulation of PBMCs from HLA-A2 donors; conditions: for dextramer positive CD8+ T cells: representative plot, day 12, peptide-stimulated PBMCs; for increase in dextramer positive CD8+ T cells, peptide stimulated versus non stimulated: FIG. 4B, 12 different donors, day 12; for ability to elicit a specific CD8+ T cell response: summary statement
[2] = system: T2 cells pulsed with HERV peptide; experiment: Cytotoxicity assay with T2 cells contact (intracellular IFN-γ of CD8+ T cells, FACS); conditions: for IFN-γ production, percentage of CD8+ T cells (in median): FIG. 3B, 5 different donors, day 12, T2 cells pulsed with cognate peptide; for IFN-γ production, number of CD8+ T cells: FIG. 5B, 12 different donors, day 12
Procedure: On day 12 of PBMCs culture, T2 cells were washed in RPMI and resuspended into AIM-V medium (Thermo Fisher Scientific). T2 (SD Cell line) are a lymphoblast cell line deficient in the transporter associated with antigen processing (TAP) protein, and therefore cannot present endogenous peptides on the class I MHC, but can be used to monitor the CTL response to an exogenous antigen of interest in a non-competitive environment. T2 cells were first pulsed with HERV peptide by adding 10 μg/mL of corresponding peptide to 2M T2 cell for 2 hours at 37° C. PBMCs were pooled and counted and put in co-culture with corresponding T2 cells at a respective concentration of 1:5 into a new 96 U-well plate.
After 4 hours of incubation at 37° C., cells from co-culture were washed and pooled in V-well plate according to their staining condition in FACS buffer. Zombie NIR (Biolegend) was used at 1/400 to assess viability. Anti CD3 (PercP, Biolegend) and anti CD8 (FITC, Beckman coulter) antibodies were added 1/10 per condition and left for 25 minutes at 4° C. Cells were washed again and then fixed with fixation/permeabilization solution kit (Invitrogen, Carlasbad, USA) according to the manufacturer's instructions for 15 minutes at room temperature. Cells were washed two times in FACS buffer and kept at 4° c.
On day 13, cells were permeabilized with the permeabilization solution kit (Invitrogen) for 5 minutes at room temperature and anti IFN-γ (PE, Biolegend) antibody was added 1/20 to the solution for additional 25 minutes at 4° C. Cells were washed two times and resuspended in 350 μL of FACS buffer before FACS analysis. Analysis was performed on FACS Fortessa (BD) to explore the specific cytotoxicity and degranulation against T2 cells expressing HERV sequences.

[3] = system: T2 cells pulsed with the cognate peptide; experiment: ELISPOT for IFN-γ and Granzyme-β of peptide stimulated PBMCs co-cultured with T2 cells; conditions: 2.10^5 cells per well, ratio 10:1 with T2 cells, revealed after 24h
Procedure: C. Representative histograms of the number of IFN-γ+ and Granzyme-I3+ spots after 12 days stimulation and following 24h of contact with T2 cells pulsed with the cognate peptide.
Peptide stimulated PBMCs after the 12-day culture were used to perform an ELISPOT assay for IFN-γ and Granzyme-β (FIG. 2C). 2.10^5 cells per well were put in co-culture with T2 cell specific for the peptide of interest in a ratio 10:1.

[4] = system: CD8+ T cells expanded from TNBC and ovarian tumor dilacerate; experiment: Dextramer staining of tumor infiltrated lymphocytes (TILs) from TNBC and ovarian cancer; conditions: day 14, FIG. 7
Procedure: Tumors were dilacerated in small pieces and digested with collagenase IV and DNAse for 45 minutes. The cells obtained were resuspended in 5% human serum RPMI and distributed in 96 well (5.10^4 cells per well). Anti-CD3/CD28 microbeads (Miltenyi biotech) were added to the well in a ratio of 1:4 with cells in the presence of IL-2 (F.C. 100 IU/ml). TILs were cultured for 14 days by changing medium at day 5, 7, 9 and 12 and the number of the cells was adapted to have 0.5×10^6 cells/ml.
At day 14 a dextramer staining was performed (see dextramer assay paragraph) for the 7 peptides of interest (P1 to P7—SEQ ID NO: 1 to 7) and dextramer specific CD8+ T cells were identified by FACS analysis in TNBC (FIG. 7A) and ovarian cancer (FIG. 7B).

Sequence | dextramer positive CD8+ T cells ([1]; FIG. 4A) | increase in dextramer positive CD8+ T cells, peptide stimulated versus non stimulated [1] | ability to elicit a specific CD8+ T cell response [1] | IFN-γ production, percentage of CD8+ T cells (in median) [2] | IFN-γ production, number of CD8+ T cells [2] | specific IFN-γ and Granzyme-β spots [3] | frequency of specific CD8+ T cells in the tumors [4] | dextramer positive CD8+ T cells ([1]; FIG. 2A)
FLQFKTWWI (HERV epitope) [P1] | 0.63% | significant increase | able to elicit a specific CD8+ T cell response | ~10% | significant number | specific IFN-γ and Granzyme-β spots | more frequently represented | 
KLIDCYTFL (epitope 3) [P3] |  | slightly | able to elicit a specific CD8+ T cell response | ~5% | significant number |  |  | 
AMIPKDWPL (HERV epitope 5) [P5] |  |  | able to elicit a specific CD8+ T cell response |  |  |  |  | 34.2%
SMDDQLNQL (HERV epitope 7) [P7] |  |  | able to elicit a specific CD8+ T cell response |  |  |  |  | 
YAMSNLFSI (HERV epitope 6) [P6] |  | significant increase | able to elicit a specific CD8+ T cell response |  | moderate number | specific IFN-γ and Granzyme-β spots | more frequently represented | 
RLIPYDWEI (epitope 2) [P2] |  | slightly | able to elicit a specific CD8+ T cell response | ~5% | significant number |  |  | 
YLSFIKILL (HERV epitope 4) [P4] |  | significant increase | able to elicit a specific CD8+ T cell response |  |  |  |  | 
